Read-outs that look alike come from different tables or passages of the source.
Tested on: primary rat mixed cortical cells
Experiment: In vitro myelination assay (MBP positive myelin strands, fold myelin pixels above background)
Type: cell-based
Settings: Rattus norvegicus; for fold induction at 1 µM: 1.0 μM compound; for fold induction at 10 µM: 10.0 μM compound
Procedure, shortened: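 Fourteen-day treatment of primary P1 rat mixed cortical cultures, re-dosed at days 6 and 10, at 1.0 μM and 10.0 μM. MBP immunofluorescence was imaged at 10× and myelin strands quantified by software, normalised to untreated wells as fold above background.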

[1] = relative to baseline of no added compound, read-out: Fold myelin pixels above background
[2] = relative to baseline of no added compound, read-out: Fold myelin pixels above background, 1.0 μM
[3] = relative to baseline of no added compound, read-out: Fold myelin pixels above background, 10.0 μM
[4] = read-out: Fold myelin pixels above background relative to baseline of no added compound

Compound | fold induction at 1 µM [1] | fold induction at 10 µM [1] | fold induction at 1 µM [2] | fold induction at 10 µM [3] | further results
COCC1CCN(c2cc(C(F)F)cc(Nc3ncn(-c4cc(F)cc(F)c4)n3)n2)CC1 [Compound 729, 4-(difluoromethyl)-N-[1-(3,5-difluorophenyl)-1,2,4-triazol-3-yl]-6-[4-(methoxymethyl)-1-piperidyl]pyridin-2-amine] | ≤ 1 | 10 to 100 |  |  | 
Cc1cc(Nc2ncn(-c3ccccn3)n2)cc(C2CCCN(C3COC3)C2)c1 (stereo not drawn) [Compound 207, N-[3-methyl-5-[1-(oxetan-3-yl)-3-piperidyl]phenyl]-1-(2-pyridyl)-1,2,4-triazol-3-amine] |  |  | 10 to 100 | ≤ 1 | 
Fc1cccc(-n2cnc(Nc3cc(N4CCN(C5COC5)CC4)cc(C(F)(F)F)c3)n2)c1 [Compound 175, 1-(3-fluorophenyl)-N-[3-[4-(oxetan-3-yl)piperazin-1-yl]-5-(trifluoromethyl)phenyl]-1,2,4-triazol-3-amine] |  |  | 1000 to 10000 | ≤ 1 | 
Cc1cc(NCC(C)N2CC(C)OC(C)C2)cc(Nc2ncn(-c3cc(F)cc(F)c3)n2)c1 (stereo not drawn) [Compound 882, N1-[1-(3,5-difluorophenyl)-1,2,4-triazol-3-yl]-N3-[2-(2,6-dimethylmorpholin-4-yl)propyl]-5-methyl-benzene-1,3-diamine] |  |  |  |  | fold induction at 1 µM [4]: 1 to 10; fold induction at 10 µM [4]: 1 to 10
CCc1cc(Nc2ncn(-c3ccnc(F)c3)n2)cc(N2CCN(C3COC3)CC2)c1 [Compound 16, N-[3-ethyl-5-[4-(oxetan-3-yl)piperazin-1-yl]phenyl]-1-(2-fluoro-4-pyridyl)-1,2,4-triazol-3-amine] |  |  | 100 to 1000 | 10 to 100 | 
COc1cccc(-n2cnc(Nc3cc(Cl)nc(N4CCOCC4)c3)n2)c1 [Compound 145, 2-chloro-N-[1-(3-methoxyphenyl)-1,2,4-triazol-3-yl]-6-morpholino-pyridin-4-amine] |  |  | 10 to 100 | 10 to 100 | 
Cc1cc(Nc2ncn(-c3cc(F)cc(F)c3)n2)cc(C2CNC(=O)O2)c1 (stereo not drawn) [Compound 295, 5-[3-[[1-(3,5-difluorophenyl)-1,2,4-triazol-3-yl]amino]-5-methyl-phenyl]oxazolidin-2-one] |  |  | 10 to 100 | 1 to 10 | 
Cc1cc(Nc2ncn(-c3ccc(C)c(F)c3)n2)cc(N2CCN(C3COC3)CC2)c1 [Compound 836, 1-(3-fluoro-4-methyl-phenyl)-N-[3-methyl-5-[4-(oxetan-3-yl)piperazin-1-yl]phenyl]-1,2,4-triazol-3-amine] |  |  |  |  | fold induction at 1 µM [4]: 1 to 10; fold induction at 10 µM [4]: 1 to 10
Cc1cc(Nc2ncn(-c3cc(F)cc(F)c3)n2)c(F)c(N2CCN(CCO)CC2)c1 [Compound 1043, 2-[4-[3-[[1-(3,5-difluorophenyl)-1,2,4-triazol-3-yl]amino]-2-fluoro-5-methyl-phenyl]piperazin-1-yl]ethanol] |  |  |  |  | fold induction at 1 µM [4]: 10 to 100; fold induction at 10 µM [4]: ≤ 1
Cc1cc(C#CC2CC2)cc(Nc2ncn(-c3cccc(F)c3)n2)c1 [Compound 769, N-[3-(2-cyclopropylethynyl)-5-methyl-phenyl]-1-(3-fluorophenyl)-1,2,4-triazol-3-amine] | 1 to 10 | ≤ 1 |  |  | 
Cc1cc(Nc2ncn(-c3ccc(F)c(F)c3)n2)cc(OCC2CCOC2)c1 (stereo not drawn) [Compound 865, 1-(3,4-difluorophenyl)-N-[3-methyl-5-(tetrahydrofuran-3-ylmethoxy)phenyl]-1,2,4-triazol-3-amine] |  |  |  |  | fold induction at 1 µM [4]: 1 to 10; fold induction at 10 µM [4]: 1 to 10
FC(F)c1cccc(-n2cnc(Nc3cc(C(F)F)cc(N4CC(N5CCOCC5)C4)n3)n2)c1 [Compound 756, 4-(difluoromethyl)-N-[1-[3-(difluoromethyl)phenyl]-1,2,4-triazol-3-yl]-6-(3-morpholinoazetidin-1-yl)pyridin-2-amine] | 1 to 10 | 10 to 100 |  |  | 
Fc1cc(F)cc(-n2cnc(Nc3cc(C4CC4)nc(N4CCOCC4)c3)n2)c1 [Compound 405, 2-cyclopropyl-N-[1-(3,5-difluorophenyl)-1,2,4-triazol-3-yl]-6-morpholino-pyridin-4-amine] | 100 to 1000 | 1000 to 10000 |  |  | 
Cc1cc(Nc2ncn(-c3ccccc3)n2)cc(C2CCNCC2)c1 [Compound 308, N-[3-methyl-5-(4-piperidyl)phenyl]-1-phenyl-1,2,4-triazol-3-amine] |  |  | 1000 to 10000 | ≤ 1 | 
Cc1cc(Nc2ncn(-c3ccc(F)c(F)c3)n2)cc(NC2CCN(C3COC3)C2)c1 (stereo not drawn) [Compound 113, N3-[1-(3,4-difluorophenyl)-1,2,4-triazol-3-yl]-5-methyl-N1-[1-(oxetan-3-yl)pyrrolidin-3-yl]benzene-1,3-diamine] |  |  | 1000 to 10000 | ≤ 1 | 
Fc1cc(Nc2ncn(-c3cccc(C(F)(F)F)c3)n2)cc(N2CCCC2)c1 [Compound 241, N-(3-fluoro-5-pyrrolidin-1-yl-phenyl)-1-[3-(trifluoromethyl)phenyl]-1,2,4-triazol-3-amine] |  |  | ≤ 1 | ≤ 1 | 
Cc1cc(Nc2ncn(-c3ccnc(O)c3)n2)cc(N2CCOCC2)c1 [Compound 155, 4-[3-(3-methyl-5-morpholino-anilino)-1,2,4-triazol-1-yl]pyridin-2-ol] |  |  | 100 to 1000 | 100 to 1000 | 
Cc1cc(Nc2ncn(-c3cc(F)cc(N4CCC(CO)C4)c3)n2)cc(N2CCN(C3COC3)CC2)c1 (stereo not drawn) [Compound 480, [1-[3-fluoro-5-[3-[3-methyl-5-[4-(oxetan-3-yl)piperazin-1-yl]anilino]-1,2,4-triazol-1-yl]phenyl]pyrrolidin-3-yl]methanol] | 10 to 100 | ≤ 1 |  |  | 
Fc1cc(F)cc(-n2cnc(Nc3cc(N4CC(N5CCOCC5)C4)cc(Cl)n3)n2)c1 [Compound 660, 6-chloro-N-[1-(3,5-difluorophenyl)-1,2,4-triazol-3-yl]-4-(3-morpholinoazetidin-1-yl)pyridin-2-amine] | ≤ 1 | ≤ 1 |  |  | 
Cc1cc(Nc2ncn(-c3cc(F)cc(F)c3)n2)cc(N2CC(N3CCO[C@@H](C)C3)C2)c1 [Compound 730, 1-(3,5-difluorophenyl)-N-[3-methyl-5-[3-[(2S)-2-methylmorpholin-4-yl]azetidin-1-yl]phenyl]-1,2,4-triazol-3-amine] | 10 to 100 | 10 to 100 |  |  | 
CSc1nccc(-n2cnc(Nc3cc(C)cc(N4CCN(C5COC5)CC4)c3)n2)n1 [Compound 64, N-[3-methyl-5-[4-(oxetan-3-yl)piperazin-1-yl]phenyl]-1-(2-methylsulfanylpyrimidin-4-yl)-1,2,4-triazol-3-amine] |  |  | 10 to 100 | ≤ 1 | 
Cc1cc(Nc2ncn(-c3cc(F)cc(F)c3)n2)nc(N2CCN(C(=O)OC(C)(C)C)CC2)c1 [Compound 533, tert-butyl 4-[6-[[1-(3,5-difluorophenyl)-1,2,4-triazol-3-yl]amino]-4-methyl-2-pyridyl]piperazine-1-carboxylate] | 10 to 100 | 1 to 10 |  |  | 
Cc1cc(Nc2ncn(-c3cc(F)cc(F)c3)n2)c(C)c(N2CC(N3CCOCC3)C2)c1 [Compound 820, 1-(3,5-difluorophenyl)-N-[2,5-dimethyl-3-(3-morpholinoazetidin-1-yl)phenyl]-1,2,4-triazol-3-amine] |  |  |  |  | fold induction at 1 µM [4]: 1 to 10; fold induction at 10 µM [4]: 10 to 100
N#Cc1cc(Nc2ncn(-c3ccc(F)c(F)c3)n2)nc(N2CCN(C3COC3)CC2)c1 [Compound 607, 2-[[1-(3,4-difluorophenyl)-1,2,4-triazol-3-yl]amino]-6-[4-(oxetan-3-yl)piperazin-1-yl]pyridine-4-carbonitrile] | 10 to 100 | 10 to 100 |  |  | 
COC1CCCC1Nc1cc(C)cc(Nc2ncn(-c3cc(F)cc(F)c3)n2)c1 (stereo not drawn) [Compound 1065, N3-[1-(3,5-difluorophenyl)-1,2,4-triazol-3-yl]-N1-(2-methoxycyclopentyl)-5-methyl-benzene-1,3-diamine] |  |  |  |  | fold induction at 1 µM [4]: 10 to 100; fold induction at 10 µM [4]: 1 to 10
Cc1cc(Nc2ncn(-c3cc(F)cc(F)c3)n2)cc(N2CCOC(COCC3CC3)C2)c1 (stereo not drawn) [Compound 1087, N-[3-[2-(cyclopropylmethoxymethyl)morpholin-4-yl]-5-methyl-phenyl]-1-(3,5-difluorophenyl)-1,2,4-triazol-3-amine] |  |  |  |  | fold induction at 1 µM [4]: 1 to 10; fold induction at 10 µM [4]: 1 to 10
COc1ccc(-n2cnc(Nc3cc(C)cc(N4CC(N5CCOCC5)C4)c3)n2)cc1F [Compound 735, 1-(3-fluoro-4-methoxy-phenyl)-N-[3-methyl-5-(3-morpholinoazetidin-1-yl)phenyl]-1,2,4-triazol-3-amine] | 1 to 10 | 1 to 10 |  |  | 
Cc1cc(NCCOC2CCC2)cc(Nc2ncn(-c3cc(F)cc(F)c3)n2)c1 [Compound 1008, N3-[2-(cyclobutoxy)ethyl]-N1-[1-(3,5-difluorophenyl)-1,2,4-triazol-3-yl]-5-methyl-benzene-1,3-diamine] |  |  |  |  | fold induction at 1 µM [4]: 10 to 100; fold induction at 10 µM [4]: 1 to 10
CC(F)(F)c1cc(Nc2ncn(-c3ccc(F)c(F)c3)n2)nc(N2CCN(C3COC3)CC2)c1 [Compound 579, 4-(1,1-difluoroethyl)-N-[1-(3,4-difluorophenyl)-1,2,4-triazol-3-yl]-6-[4-(oxetan-3-yl)piperazin-1-yl]pyridin-2-amine] | 1 to 10 | 1 to 10 |  |  | 
CCc1cc(Nc2ncn(-c3ccnc(C)n3)n2)cc(N2CCN(C3COC3)CC2)c1 [Compound 91, N-[3-ethyl-5-[4-(oxetan-3-yl)piperazin-1-yl]phenyl]-1-(2-methylpyrimidin-4-yl)-1,2,4-triazol-3-amine] |  |  | ≤ 1 | 100 to 1000 | 

Source: patent US10766869B2, “Triazoles for the treatment of demyelinating dieases” (Vertex Pharmaceuticals Incorporated, priority 2015, dated 2020)
